Like-named read-outs stand apart in the source and are kept apart here. Square brackets hold non-standard residues; d marks the D form. Peptide text beside a SMILES is read from it. * marks the point of attachment. Sta = CC(C)C[C@H](N)[C@@H](O)CC(=O)O; Isovaleryl = CC(C)CC(=O)*
Columns and labels:
ficin = assay: Protease assay with azocasein: ficin; type: biochemical; conditions: azocasein substrate, pH 7.2; n.i. = no inhibition; read-out: Ficin, inhibitory activity as IC50 value
Procedure: (§1) Protease Assays with azocasein: Protease inhibition assays against the proteases papain, ficin, trypsin, pepsin and thermolysin were performed according to the protocol of Garcia-Carreño (loc. cit.) in a reaction buffer containing 25 mM TRIS-HCl, 0.15 M NaCl, pH 7.2 (or pH 3.5 for aspartic protease). The total assay volume was 47 μL buffer with 2 μL of the protease as well as 1 μL of suitable inhibitor or corresponding inhibitor solvent (100% MeoH or water). Final concentration of proteases was as follows: 2 mg/mL for papain (Sigma-Aldrich, P4762), 600 μg/mL for ficin (Sigma-Aldrich, F6008), 80 μg/mL for trypsin (Thermo Fisher, 23266), 60 mg/mL for pepsin (Sigma-Aldrich P6887)) and 2 μg/mL for thermolysin (Sigma-Aldrich, P1512).
(§2) Inhibitors were dissolved in 100% MeOH or water and added to the assay (1 μL); final concentration: 2% MeOH. Samples of control inhibitors were prepared as follows: (1) serine protease (trypsin): PMFS (2 mM) and soybean trypsin inhibitor (240 μM) (Sigma-Aldrich, T1021), (2) cysteine proteases (papain and ficin): iodacetamide (2 mM), (3) […] (pepsin): pepstatin A (1 μg/mL) (Sigma-Aldrich, P4265), (4) metalloprotease (thermolysin): EDTA (10 mM). […] Negative controls were performed with protease alone (without inhibitor) and MeOH at a final concentration of 2% (reference for activity of 100%). Extract absorbance controls were performed using inhibitor (1 μL in MeOH) without protease. Blanks were performed using 49 μL buffer and 1 μL MeOH.
(§3) Samples were incubated with buffer and suitable inhibitor (or without for negative controls) for 1 h at r.t. and the reaction was started afterward by adding 50 μl of […] substrate and incubated for 1 h at 37° C. After stopping the reaction with trichloracetic acid (TCA), the separation of the precipitate was accomplished by centrifugation at 6500 g for 5 min. The hydrolyzed substrate supernatant was incubated in an equal volume of 0.5 N NaOH for 5 min and the absorbance was measured at 440 nm. OD values of the protease control without inhibitor were used as reference for a 100% activity.
(§4) The log IC50 values were determined using the standard curves analyzing tool with four parameter logistic equation of SigmaPlot12 with technical triplicates. Propagation of error was calculated using the standard error and log IC50 values where the equation of error propagation is defined as Δy=0.43Δx/x.

Cathepsin B [1] = target: T1, Cathepsin B (Homo sapiens, UniProt P07858); assay: Cathepsin B inhibition assay (Z-Arg-Arg-AMC); type: biochemical; conditions: Z-Arg-Arg-AMC substrate, pH 6.0; n.i. = no inhibition; read-out: Cathepsin B, inhibitory activity as IC50 value
Procedure: Cathepsin B inhibition assay. Cathepsin B inhibition assay was determined according to Hiwasa et al. (loc. cit.) with minor changes. Cathepsin B was purchased from Sigma Aldrich (C0150) and stored in 50 mM sodium acetate, 1 mM EDTA, pH 5 (adjusted with acetic acid). Cathepsin B was activated by preincubation at 40° C. for 10 min in assay buffer (0.1 M sodium acetate 1.3 mM EDTA, pH 6.0 adjusted with acetic acid, 2 μM DTT, 2.6 mM cysteine and 0.05% Triton X100). […] Final concentration of cathepsin B was 0.1 mg/ml. […] After stopping the reaction with 85 μL buffer containing 100 mM sodium monochlor acetate, 30 mM sodium acetate, 70 mM acetic acid, the hydrolyzed substrate was detected at an excitation wavelength of 380 nm and a fluorescence wavelength of 450 nm, using a fluorophotometer. 1 μL of 1.5 mM leupeptin was used as enzyme inhibition control.

trypsin [2] = target: T2, trypsin (Bos taurus, UniProt P00760); assay: Protease assay with azocasein: trypsin; type: biochemical; conditions: azocasein substrate, pH 7.2; n.i. = no inhibition
T2 construct: purchased Thermo Fisher 23266
T2 sequence (P00760 24-246): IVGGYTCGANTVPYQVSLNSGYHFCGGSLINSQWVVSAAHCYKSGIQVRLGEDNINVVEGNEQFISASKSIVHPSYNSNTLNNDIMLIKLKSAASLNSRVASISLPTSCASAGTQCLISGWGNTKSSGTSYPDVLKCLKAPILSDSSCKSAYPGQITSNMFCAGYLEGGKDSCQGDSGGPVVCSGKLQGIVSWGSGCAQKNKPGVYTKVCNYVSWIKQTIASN
Procedure: as §1, §2, §3, §4

papain [3] = target: T3, papain (Carica papaya, UniProt P00784); assay: Protease assay with azocasein: papain; type: biochemical; conditions: azocasein substrate, pH 7.2; n.i. = no inhibition; read-out: Papain, inhibitory activity as IC50 value
T3 construct: purchased Sigma-Aldrich P4762
T3 sequence (P00784 134-345): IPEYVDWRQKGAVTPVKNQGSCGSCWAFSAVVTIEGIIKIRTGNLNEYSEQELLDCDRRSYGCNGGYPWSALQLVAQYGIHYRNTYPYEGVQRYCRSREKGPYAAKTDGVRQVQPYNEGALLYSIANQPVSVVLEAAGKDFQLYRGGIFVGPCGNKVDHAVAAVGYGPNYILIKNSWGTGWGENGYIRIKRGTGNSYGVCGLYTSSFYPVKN
Procedure: as §1, §2, §3, §4

pepsin = target: T4, pepsin (Sus scrofa, UniProt P00791); assay: Protease assay with azocasein: pepsin; type: biochemical; conditions: azocasein substrate, pH 3.5; n.i. = no inhibition
T4 construct: purchased Sigma-Aldrich P6887
Procedure: as §1, §2, §3, §4

thermolysin = target: T5, thermolysin (Bacillus thermoproteolyticus, UniProt P00800); assay: Protease assay with azocasein: thermolysin; type: biochemical; conditions: azocasein substrate, pH 7.2; n.i. = no inhibition
T5 construct: purchased Sigma-Aldrich P1512
Procedure: as §1, §2, §3, §4

Cathepsin B [4] = target: T1, Cathepsin B; conditions: reported in literature; cells printed in μM; read-out: Cathepsin B, reported inhibitory activity as IC50 value; cited from earlier work
Trypsin [5] = conditions: reported in literature; cited from earlier work
hCatL = hCatL (Homo sapiens, UniProt P07711); assay: Fluorescence-based activity test against cathepsin L (Cbz-Phe-Arg-AMC); type: biochemical; parameters: dose or concentration left out as unconfirmed
Procedure: (§5) Activity Tests Against Cathepsin B, Cathepsin L and Rhodesain.
(§6) The determination of the activity of the inhibitors against hCatL and RD was performed in fluorescence-based assays in accordance with the assays described in Giroud et al., ChemMedChem 12 (2017), 257-270 and Schirmeister, Bioorganic & Medicinal Chemistry Letters 27 (2017) 45-50. The biological activities against hCatL were determined using Cbz-Phe-Arg-AMC as substrate, which releases AMC (7-amino-4-methylcoumarin) after amide bond cleavage by the enzyme. The proteolytic activity of the enzyme can be monitored spectrophotometrically by the increase of fluorescence intensity by release of AMC (emission at 460 nm) upon hydrolysis. An initial screen at an inhibitor concentration […] was performed to identify ligands with an inhibition of hCatL and RD higher than 80%.

Cathepsin B [6] = target: T1, Cathepsin B; assay: Activity test against cathepsin B (initial screen, Table 5); type: biochemical; parameters: dose or concentration left out as unconfirmed
Procedure: as §5, §6

Rhodesain = Rhodesain (Trypanosoma brucei rhodesiense, UniProt Q95PM0); assay: Fluorescence-based activity test against rhodesain; type: biochemical; conditions: initial screen at an inhibitor concentration of 20 mM; ni = no inhibition
Procedure: as §5
Rhodesain is a central cysteine protease from Trypanosoma brucei rhodesiense and a potential drug target against human African trypanosomiasis (sleeping sickness).
as §6

[7] = tested on: trypsin (Thermo Fisher, 23266); assay: Protease assay with azocasein, trypsin; type: biochemical; conditions: 2 mM PMFS
Procedure: (§7) Protease Assays with azocasein: Protease inhibition assays against the proteases papain, ficin, trypsin, pepsin and thermolysin were performed according to the protocol of Garcia-Carreño (loc. cit.) in a reaction buffer containing 25 mM TRIS-HCl, 0.15 M NaCl, pH 7.2 (or pH 3.5 for aspartic protease). The total assay volume was 47 μL buffer with 2 μL of the protease as well as 1 μL of suitable inhibitor or corresponding inhibitor solvent (100% MeoH or water). […]
(§8) Inhibitors were dissolved in 100% MeOH or water and added to the assay (1 μL); final concentration: 2% MeOH. […] Extract absorbance controls were performed using inhibitor (1 μL in MeOH) without protease. […]
(§9) Samples were incubated with buffer and suitable inhibitor (or without for negative controls) for 1 h at r.t. and the reaction was started afterward by adding 50 μl of […] substrate and incubated for 1 h at 37° C. […] The hydrolyzed substrate supernatant was incubated in an equal volume of 0.5 N NaOH for 5 min and the absorbance was measured at 440 nm. […]
as §4

[8] = tested on: ficin (Sigma-Aldrich, F6008); assay: Protease assay with azocasein, ficin; type: biochemical; conditions: 2 mM iodacetamide
Procedure: as §7, §8, §9, §4

[9] = target: T6, papain (Sigma-Aldrich, P4762) (Carica papaya, UniProt P00784); assay: Protease assay with azocasein, papain; type: biochemical; conditions: 2 mM iodacetamide; read-out: inhibition of enzyme activity (control inhibitor), papain
T6 sequence (P00784 134-345): T3 sequence (P00784 134-345)
Procedure: as §7, §8, §9, §4

[10] = tested on: pepsin (Sigma-Aldrich P6887); assay: Protease assay with azocasein, pepsin; type: biochemical; conditions: 1 μg/mL pepstatin A
Procedure: as §7, §8, §9, §4

papain [11] = target: T3, papain; conditions: reported in literature for known compounds; read-out: Papain, reported inhibitory activity as IC50 value; cited from earlier work
trypsin [12] = conditions: reported in literature for known compounds; read-out: Trypsin, reported inhibitory activity as IC50 value; cited from earlier work

T5 sequence (P00800 233-548): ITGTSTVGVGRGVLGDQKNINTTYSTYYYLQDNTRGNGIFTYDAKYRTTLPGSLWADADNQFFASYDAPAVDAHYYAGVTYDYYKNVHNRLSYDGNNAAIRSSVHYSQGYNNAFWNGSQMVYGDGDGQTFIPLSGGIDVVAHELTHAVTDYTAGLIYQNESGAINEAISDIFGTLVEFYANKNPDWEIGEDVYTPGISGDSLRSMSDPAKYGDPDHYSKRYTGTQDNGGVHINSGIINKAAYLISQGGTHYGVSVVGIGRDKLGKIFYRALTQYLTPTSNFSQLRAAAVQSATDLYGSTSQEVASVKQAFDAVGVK
T4 sequence (P00791 60-385): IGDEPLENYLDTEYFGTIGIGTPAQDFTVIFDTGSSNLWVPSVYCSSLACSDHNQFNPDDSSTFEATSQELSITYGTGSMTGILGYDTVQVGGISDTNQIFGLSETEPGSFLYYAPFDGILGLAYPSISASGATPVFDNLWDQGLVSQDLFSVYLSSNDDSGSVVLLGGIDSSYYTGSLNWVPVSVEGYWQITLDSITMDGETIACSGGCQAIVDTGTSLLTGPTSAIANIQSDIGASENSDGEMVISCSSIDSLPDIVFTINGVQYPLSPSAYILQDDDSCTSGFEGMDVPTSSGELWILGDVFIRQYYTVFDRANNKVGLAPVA
Chain of hCatL (P07711 114-333): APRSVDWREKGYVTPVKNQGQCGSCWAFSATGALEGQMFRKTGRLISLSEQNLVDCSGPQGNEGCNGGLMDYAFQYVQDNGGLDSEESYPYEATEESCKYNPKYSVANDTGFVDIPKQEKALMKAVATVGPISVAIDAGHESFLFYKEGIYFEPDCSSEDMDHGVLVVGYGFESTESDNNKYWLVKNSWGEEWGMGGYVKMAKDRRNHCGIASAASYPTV
Chain of Rhodesain (Q95PM0 entry or part of it): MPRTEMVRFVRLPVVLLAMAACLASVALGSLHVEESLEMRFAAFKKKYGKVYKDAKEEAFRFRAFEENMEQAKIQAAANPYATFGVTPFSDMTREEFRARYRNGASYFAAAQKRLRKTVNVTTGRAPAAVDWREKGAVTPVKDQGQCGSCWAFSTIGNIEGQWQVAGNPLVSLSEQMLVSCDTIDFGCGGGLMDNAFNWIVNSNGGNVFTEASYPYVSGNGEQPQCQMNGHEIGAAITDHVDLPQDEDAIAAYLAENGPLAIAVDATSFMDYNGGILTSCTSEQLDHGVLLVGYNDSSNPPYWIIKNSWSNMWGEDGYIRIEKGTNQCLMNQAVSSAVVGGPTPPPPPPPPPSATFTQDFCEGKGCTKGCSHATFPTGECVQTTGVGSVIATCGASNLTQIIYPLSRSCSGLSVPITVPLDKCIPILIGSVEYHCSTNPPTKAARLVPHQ

With `CCCCCCCC(=O)N[C@@H](Cc1ccc(O)cc1)C(=O)N[C@H](/C=C/C(=O)O)CCCNC(=N)N` [17,18-Dihydrobarnesin (4), 17,18-Dihydrobarnesin] the IC50 (ficin) was 1160 nM, the IC50 (Cathepsin B [1]) was 87.6 nM and the “Trypsin, inhibitory activity as IC50 value” (trypsin [2]) was “n.i”. For the same compound, the IC50 (papain [3]) was 4780 nM, the “Pepsin, inhibitory activity as IC50 value” (pepsin) was “n.i” and the “Thermolysin, inhibitory activity as IC50 value” (thermolysin) was “n.i”.
In the case of `CC[C@H](NC(=O)C[C@H](O)[C@H](CC(C)C)NC(=O)[C@H](CC(C)C)NC(=O)[C@@H]1N[C@H]1C(=O)O)C(=O)N[C@H](/C=C/C(=O)O)CCCNC(=N)N` [Miraziridine A], the IC50 (Cathepsin B [4]) is given as 2.05 µM and the IC50 (Trypsin [5]) is given as 60000 nM.
In the case of `CCCCC/C=C/C(=O)N[C@H](Cc1ccc(O)cc1)C(=O)N[C@H](/C=C/C(=O)O)CCCNC(=N)N` [drawing 49], the inhibition (hCatL) is reported as 7%, the inhibition (Cathepsin B [6]) is reported as 5% and the “Rhodesain (%) inhibition” value (Rhodesain) is reported as “ni”.
In the case of `CCCCC/C=C/C(=O)N[C@@H](Cc1ccc(O)cc1)C(=O)N[C@H](/C=C/C(=O)O)CCCNC(=N)N` [Barnesin A (1), Barnesin A], the IC50 (ficin) is reported as 3430 nM, the IC50 (Cathepsin B [1]) is reported as 91.7 nM and the “Trypsin, inhibitory activity as IC50 value” (trypsin [2]) is reported as “n.i”. The IC50 (papain [3]) was 16000 nM, the “Pepsin, inhibitory activity as IC50 value” (pepsin) was “n.i” and the “Thermolysin, inhibitory activity as IC50 value” (thermolysin) was “n.i”.
With `O=S(=O)(F)Cc1ccccc1` [PMFS] the “inhibition of enzyme activity (control inhibitor), trypsin” value [7] was over 95%.
With `NC(=O)CI` [iodacetamide] the “inhibition of enzyme activity (control inhibitor), ficin” value [8] was over 95% and the inhibition at 2000 µM [9] was over 95%.
In the case of `CC(C)CC(=O)N[C@H](C(=O)N[C@H](C(=O)N[C@@H](CC(C)C)[C@@H](O)CC(=O)N[C@@H](C)C(=O)N[C@@H](CC(C)C)[C@@H](O)CC(=O)O)C(C)C)C(C)C` [pepstatin A] (Isovaleryl-VV[Sta]A[Sta]-OH), the “inhibition of enzyme activity (control inhibitor), pepsin” value [10] is reported as over 95%.
In the case of `CC(=O)N[C@@H](CC(C)C)C(=O)N[C@@H](CC(C)C)C(=O)N[C@H](C=O)CCCNC(=N)N` [Leupeptin, reference compound], the IC50 (papain [11]) is listed as 860 nM and the IC50 (trypsin [12]) is listed as 2200 nM.

Reference: patent publication US20230202973A1, “BARNESIN A, DERIVATIVES AND USES THEREOF” (Leibniz-Institut Für Naturstoff-Forschung Und …, priority 2018, published 2023)
